The text below walks through data of patent US7713963B2, “Acylated indanyl amines and their use as pharmaceuticals” (sanofi-aventis Deutschland GmbH, priority 2001, dated 2010).

Assay [1] has as its system vascular eNOS expression. Put plainly: Vascular eNOS expression (aorta, quantitative western blotting) in femoral artery cuff model. The format is in vivo. Particulars: ApoE deficient mice, 10 mg/kg/d, versus placebo. On the procedure: After 3 day treatment of ApoE deficient mice with the respective compound, (10 mg/kg/d pressed in chow), animals were anesthetized with an intraperitoneal injection of pentobarbital (60 mg/kg) followed by an intramuscular injection of xylazin (2 mg/kg) and a cuff was placed around the femoral artery as described in Moroi et al. (J. Clin. Invest. 101: 1225-32, 1998). Briefly, the left femoral artery was dissected. A non-occlusive 2.0 mm polyethylene cuff made of PE-50 tubing (inner diameter 0.56 mm, outer diameter 0.965 mm, Becton Dickinson, Mountain View, Calif.) was placed around the artery and tied in place with two 7-0 sutures. The right femoral artery was isolated from the surrounding tissues but a cuff was not placed. Treatment with the respective compound was continued for 14 days after surgery. Then the animals were sacrificed. The aorta were taken for determination of vascular eNOS expressions by quantitative western blotting. Both femoral arteries were harvested, fixed in formalin and embedded in paraffin. 20 cross sections (10 μm) were cut from the cuffed portion of the left femoral artery and from the corresponding segment of the right artery. […] For each cross section the area of the lumen, the neointima and the media were determined. […] The ratio between the area of the neointima and the area of the media was expressed as the neointima/media ratio.
Background: A western blot detects proteins with antibodies after separation by electrophoresis.

In assay [2] the test system is ApoE deficient mice. The assay is described as follows: Inhibition of neointima formation and atherogenesis (femoral artery cuff) in ApoE deficient mice. The format is in vivo. The conditions noted are these: 10 mg/kg/d in chow, 3 days before to 14 days after cuff surgery, versus placebo. From the text: (§1) Animals and Treatment (Experiments A-C)
(§2) ApoE and eNOS deficient mice (C57BL/6J background, Jackson Laboratory, Bar Harbor, Me.) were used. All animals were 10-12 weeks of age and weighed 22 to 28 g. Three days before surgery mice were divided into 4 groups (apoE control, n=10-12; apoE with test compounds, n=10-12; eNOS control, n=10-12; eNOS with test compounds, n=10-12) and received either a standard rodent chow (containing 4% fat and 0.001% cholesterol; in the following designated as placebo group) or a standard rodent chow+test compound (10 or 30 mg/kg/d p.o.).
B Inhibition of Neointima Formation and Atherogenesis (Femoral Artery Cuff)
After 3 day treatment of ApoE deficient mice with the respective compound, (10 mg/kg/d pressed in chow), animals were anesthetized with an intraperitoneal injection of pentobarbital (60 mg/kg) followed by an intramuscular injection of xylazin (2 mg/kg) and a cuff was placed around the femoral artery as described in Moroi et al. (J. Clin. Invest. 101: 1225-32, 1998). Briefly, the left femoral artery was dissected. […] The aorta were taken for determination of vascular eNOS expressions by quantitative western blotting. […] For each cross section the area of the lumen, the neointima and the media were determined. […] The ratio between the area of the neointima and the area of the media was expressed as the neointima/media ratio.

In assay [3] the test system is eNOS promoter. The assay is described as follows: Activation of eNOS transcription (eNOS promoter-luciferase reporter gene assay). The format is cell-based, human. Particulars: Homo sapiens, 18 h, 18 h incubation. Summed up: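 Human endothelial cell line stably expressing firefly luciferase under a 3.5 kB eNOS promoter fragment, treated 18 h with compounds (0.5% DMSO final). Luciferase induction relative to solvent gives transcription induction ratio; EC50 read graphically from ratio versus concentration.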

Assay [4] deals with vascular eNOS expression. Put plainly: Vascular eNOS expression (femoral arteries) after chronic treatment. The assay is classed as in vivo. Particulars: ApoE deficient mice, 16 weeks treatment. The method, then: ApoE deficient mice were treated for 16 weeks with the respective compound pressed in chow and finally sacrificed. Aortas were removed from each mouse, fixed in formalin and embedded in paraffin. Plaque formation was measured via lipid lesion formation in the aortas (from aortic arch to diaphragm) and was analyzed by oil red O staining. For quantifying the effect of the respective compound on vascular eNOS expression the femoral arteries were used in this experiment.

Assay [5] deals with eNOS deficient mice. The assay is described as follows: Blood pressure in eNOS deficient mice (tail-cuff). Particulars: similar dosing, 4 weeks treatment. The assay is classed as in vivo.
From the text: as §1, §2
(§3) Blood-pressure was determined in conscious mice using a computerized tail-cuff system (Visitech Systems, Apex, Nc). After treatment of ApoE deficient mice and eNOS deficient mice with the test compounds the blood pressure was compared to the results obtained with a placebo treatment.

The subject of assay [6] is ApoE deficient mice. Put plainly: Anti-hypertensive effect in ApoE knockout mice (tail-cuff blood pressure). The format is in vivo. Particulars: 30 mg/kg/d, 4 months treatment, placebo 115±2 mmHg, p<0.05.
From the text: as §1, §2
A Anti-Hypertensive Effect in ApoE Knockout Mice
as §3

Assay [7] concerns ApoE deficient mice. Put plainly: Improvement of coronary function in diseased ApoE deficient mice (isolated working heart). The format is in vivo. The conditions noted are these: isolated hearts of ApoE deficient mice, 30 mg/kg/d p.o. for 8 weeks. The source says:
D Improvement of Coronary Function in Diseased ApoE Deficient Mice
Old Male wild-type C57BL/6J mice (Charles River Wiga GmbH, Sulzfeld), and apoE deficient mice (C57BL/6J background, Jackson Laboratory, Bar Harbor, Me.) 6 month of age and weighing 28 to 36 g were used in the experiments. Mice were divided into 3 groups (C57BL/6, n=8; apoE control, n=8; apoE with respective compound, n=8) and received for 8 weeks either a standard rodent chow (containing 4% fat and 0.001% cholesterol) or a standard rodent chow+respective compound (30 mg/kg/d p.o.).
Mice were anesthetized with sodium pentobarbitone (100 mg/kg i.p.), and the hearts were rapidly excised and placed into ice-cold perfusion buffer. The aorta was cannulated and connected to a perfusion apparatus (HUGO SACHS ELECTRONICS, Freiburg, Germany) which was started immediately at a constant perfusion pressure of 60 mm Hg. Hearts were perfused in a retrograde fashion with modified Krebs bicarbonate buffer, equilibrated with 95% O2 and 5% CO2 and maintained at 37.5° C.
A beveled small tube (PE 50) was passed through a pulmonary vein into the left ventricle and pulled through the ventricular wall, anchored in the apex by a fluted end, and connected to a tip-micromanometer (Millar 1.4 French). The left atrium was cannulated through the same pulmonary vein and the heart switched to the working mode with a constant preload pressure of 10 mm Hg and an afterload pressure of 60 mm Hg. Aortic outflow and atrial inflow were continuously measured using ultrasonic flow probes (HSE/Transonic Systems Inc.). Coronary flow was calculated as the difference between atrial flow and aortic flow. All hemodynamic data were digitized at a sampling rate of 1000 Hz and recorded with a PC using specialized software (HEM, Notocord).
Hearts were allowed to stabilize for 30 min. All functional hemodynamic data were measured during steady state, and during volume- and pressure loading.
Left ventricular function curves were constructed by varying pre-load pressure. […]

SMILES strings stand for the structures.

Consider `O=C(NC1Cc2ccccc2C1)c1ccc(F)cc1` [Compound 21, 4-FLUORO-N-(INDAN-2-YL)-BENZAMIDE], for which the “vascular eNOS expression enhanced by a factor” value in assay [1] stood at 2.1. Moreover, in assay [2], the “reduction of neo-intima formation (factor)” value is 2. Besides, in assay [3] (maximum transcription induction ratio (luciferase with compound / solvent alone), read-out: TIR (max)), the maximal fold induction was found to be 4.1. In assay [3] (Endothelial cell, EC50 of transcription induction ratio, determined graphically, human endothelial cell line, read-out: EC-50), the EC50 is 800 nM. Further, the “vascular eNOS expression up-regulation” value in assay [4] was found to be 1.75 fold. In addition, in assay [5], the blood pressure reduction entry is on record as “No blood pressure reduction”. This molecule also registered a blood pressure in assay [6] of 92±5 mmHg. Also, the “pre-load dependent coronary flow” value in assay [7] is on record as “improvement”. Moreover, in assay [7] (indicator for anti-ischemic efficacy), the “incidence of ventricular arrhythmias” value is reported as “reduction”. Besides, the coronary flow in assay [7] (untreated ApoE 3.6, wildtype 4.95 ml/min) was 5 mL/min.
